The source made the active and inactive calls. The calls are words filed in the database; no cut-off is given here.
What was measured:
[1] = target: T1, 1-deoxy-D-xylulose 5-phosphate reductoisomerase (Escherichia coli K-12) (UniProt P45568); assay: Inhibition of Escherichia coli DXR activity using DXP as substrate assessed as residual activity preincubated at 100 uM for 5 mins before substrate addition measured every 3 seconds for 180 seconds by spectrophotometric assay
T1 sequence (whole entry): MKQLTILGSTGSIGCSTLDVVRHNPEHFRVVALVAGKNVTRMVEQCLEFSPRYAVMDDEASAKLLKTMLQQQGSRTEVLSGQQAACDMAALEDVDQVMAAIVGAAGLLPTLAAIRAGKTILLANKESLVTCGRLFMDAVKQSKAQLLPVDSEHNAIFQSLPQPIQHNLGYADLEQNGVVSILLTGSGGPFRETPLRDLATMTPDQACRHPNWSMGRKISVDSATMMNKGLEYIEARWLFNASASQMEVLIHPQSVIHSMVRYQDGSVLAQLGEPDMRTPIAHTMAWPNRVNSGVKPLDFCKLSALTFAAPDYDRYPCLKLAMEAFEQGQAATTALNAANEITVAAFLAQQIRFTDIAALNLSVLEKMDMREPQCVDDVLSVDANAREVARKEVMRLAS

Trypanosoma brucei = assay: Antimicrobial activity against Trypanosoma brucei at 64 uM; format: functional, organism-based
Leishmania infantum = assay: Antimicrobial activity against Leishmania infantum at 64 uM; format: functional, organism-based
Plasmodium falciparum = assay: Antimicrobial activity against Plasmodium falciparum K1 at 64 uM; format: functional, organism-based
Staphylococcus aureus = assay: Antimicrobial activity against Staphylococcus aureus at 64 uM; format: functional, organism-based
Escherichia coli = assay: Antimicrobial activity against Escherichia coli at 64 uM; format: functional, organism-based
Pseudomonas aeruginosa = assay: Antimicrobial activity against Pseudomonas aeruginosa at 64 uM; format: functional, organism-based
Trichophyton rubrum = assay: Antimicrobial activity against Trichophyton rubrum at 64 uM; format: functional, organism-based
Candida albicans = assay: Antimicrobial activity against Candida albicans at 64 uM; format: functional, organism-based
Aspergillus fumigatus = assay: Antimicrobial activity against Aspergillus fumigatus at 64 uM; format: functional, organism-based
Trypanosoma cruzi = assay: Antimicrobial activity against Trypanosoma cruzi at 64 uM; format: functional, organism-based
MRC5 = assay: Cytotoxicity against human MRC5 cells at 64 uM; format: cell-based; conditions: mrc5, 64 µM

SMILES	Activity [1] [%]	Activity (Trypanosoma brucei)	Activity (Leishmania infantum)	Activity (Plasmodium falciparum)	Activity (Staphylococcus aureus)	Activity (Escherichia coli)	Activity (Pseudomonas aeruginosa)	Activity (Trichophyton rubrum)	Activity (Candida albicans)	Activity (Aspergillus fumigatus)	Activity (Trypanosoma cruzi)	Activity (MRC5)
CC(=O)NS(=O)(=O)CCCN(O)C(C)=O	100	inactive	inactive	inactive	inactive	inactive	inactive	inactive	inactive	inactive	inactive	Non-toxic
CC(=O)N(O)CCCS(=O)(=O)NC(=O)CCc1ccccc1	100	inactive	inactive	inactive	inactive	inactive	inactive	inactive	inactive	inactive	inactive	Non-toxic
CC(=O)N(O)CCCS(=O)(=O)NC(=O)c1ccccc1	100	inactive	inactive	inactive	inactive	inactive	inactive	inactive	inactive	inactive	inactive	Non-toxic
CC(=O)N(O)CCCS(=O)(=O)NC(=O)Cc1ccccc1	100	inactive	inactive	inactive	inactive	inactive	inactive	inactive	inactive	inactive	inactive	Non-toxic
